# Test results published in publication PMC11012124, “Synthesis of Novel Triazine-Based Chalcones and 8,9-dihydro-7H-pyrimido[4,5-b][1,4]diazepines as Potential Leads in the Search of Anticancer, Antibacterial and Antifungal Agents” (International Journal of Molecular Sciences, 2024).
# Experiments:
# [1] = Hemolytic activity, spectrophotometric; format: cell-based, human; settings: human, human red blood cells (huRBC), 5% hematocrit, 200 μg/mL, 37 °C
# CCRF-CEM = assay: cells; settings: Homo sapiens, 48 h
# HL-60(TB) = assay: cells; settings: Homo sapiens, HL-60, 48 h
# K-562 = assay: cells; settings: Homo sapiens, K562, 48 h
# EKVX = assay: cells; settings: Homo sapiens, 48 h
# HOP-62 = assay: cells; settings: Homo sapiens, HOP-62, 48 h
# NCI-H322M = assay: cells; settings: Homo sapiens, 48 h
# NCI-H460 = assay: cells; settings: Homo sapiens, NCI-H460, 48 h
# COLO 205 = assay: cells; settings: Homo sapiens, COLO 205, 48 h
# HCC-2998 = assay: cells; settings: Homo sapiens, HCC 2998, 48 h
# HCT-15 = assay: cells; settings: Homo sapiens, HCT-15, 48 h
# HT29 = assay: cells; settings: Homo sapiens, HT-29, 48 h
# KM12 = assay: cells; settings: Homo sapiens, KM12, 48 h
# SF-268 = assay: cells; settings: Homo sapiens, SF-268, 48 h
# SF-295 = assay: cells; settings: Homo sapiens, SF-295, 48 h
# SF-539 = assay: cells; settings: Homo sapiens, SF-539, 48 h
# SNB-75 = assay: cells; settings: Homo sapiens, SNB-75, 48 h
# MALME-3M = assay: cells; settings: Homo sapiens, 48 h
# M14 = assay: cells; settings: Homo sapiens, M14, 48 h
# SK-MEL-28 = assay: cells; settings: Homo sapiens, SK-MEL-28, 48 h
# SK-MEL-5 = assay: cells; settings: Homo sapiens, SK-MEL-5, 48 h
# UACC-257 = assay: cells; settings: Homo sapiens, UACC-257, 48 h
# UACC-62 = assay: cells; settings: Homo sapiens, UACC-62, 48 h
# OVCAR-3 = assay: cells; settings: Homo sapiens, OVCAR-3, 48 h
# OVCAR-4 = assay: cells; settings: Homo sapiens, OVCAR-4, 48 h
# OVCAR-5 = assay: cells; settings: Homo sapiens, OVCAR-5, 48 h
# OVCAR-8 = assay: cells; settings: Homo sapiens, OVCAR-8, 48 h
# SK-OV-3 = assay: cells; settings: Homo sapiens, SK-OV-3, 48 h
# 786-0 = assay: cells; settings: Homo sapiens, 786-0, 48 h
# A498 = assay: cells; settings: Homo sapiens, A498, 48 h
# CAKI-1 = assay: cells; settings: Homo sapiens, CAKI-1, 48 h
# RXF 393 = assay: cells; settings: Homo sapiens, RXF 393, 48 h
# SN12C = assay: cells; settings: Homo sapiens, 48 h
# TK-10 = assay: cells; settings: Homo sapiens, TK-10, 48 h
# UO-31 = assay: cells; settings: Homo sapiens, UO-31, 48 h
# MCF7 = assay: cells; settings: Homo sapiens, MCF7, 48 h
# HS 578T = assay: cells; settings: Homo sapiens, 48 h
# MDA-MB-468 = assay: cells; settings: Homo sapiens, MDA-MB-468, 48 h
structure (smiles),measurement,setting,value
COc1cc(/C=C/C(=O)c2ccc(S(=O)(=O)NCCNc3nc(N(C)C)nc(N4CCOCC4)n3)cc2)cc(OC)c1OC [23d],"hemolysis at 24 h, 200 µg/mL",[1],0.2%
same,GI50,CCRF-CEM,2.07 µM
same,CC50,CCRF-CEM; read-out: LC50,> 100 µM
same,GI50,HL-60(TB),1.97 µM
same,CC50,HL-60(TB); read-out: LC50,> 100 µM
same,GI50,"K-562; K-562, 48 h",1.46 µM
same,CC50,K-562; read-out: LC50,> 100 µM
same,GI50,EKVX,3.74 µM
same,CC50,EKVX; read-out: LC50,82.3 µM
same,GI50,HOP-62,2.66 µM
same,CC50,HOP-62; read-out: LC50,32.1 µM
same,GI50,NCI-H322M,7.82 µM
same,CC50,NCI-H322M; read-out: LC50,48.5 µM
same,GI50,NCI-H460,3.17 µM
same,CC50,NCI-H460; read-out: LC50,59 µM
same,GI50,COLO 205,2.14 µM
same,CC50,COLO 205; read-out: LC50,16.6 µM
same,GI50,HCC-2998,1.8 µM
same,CC50,HCC-2998; read-out: LC50,5.9 µM
same,GI50,HCT-15,1.82 µM
same,CC50,HCT-15; read-out: LC50,8.38 µM
same,GI50,HT29,1.72 µM
same,CC50,HT29; read-out: LC50,5.93 µM
same,GI50,KM12,1.7 µM
same,CC50,KM12; read-out: LC50,6.52 µM
same,GI50,SF-268,3.16 µM
same,CC50,SF-268; read-out: LC50,77.2 µM
same,GI50,SF-295,3.04 µM
same,CC50,SF-295; read-out: LC50,57.8 µM
same,GI50,SF-539,1.81 µM
same,CC50,"SF-539; read-out: LC50, SF-539, 48 h",6.29 µM
same,GI50,SNB-75,1.56 µM
same,CC50,SNB-75; read-out: LC50,41.6 µM
same,GI50,MALME-3M,1.97 µM
same,CC50,MALME-3M; read-out: LC50,9.42 µM
same,GI50,M14,2.18 µM
same,CC50,M14; read-out: LC50,26.9 µM
same,GI50,SK-MEL-28,2.12 µM
same,CC50,SK-MEL-28; read-out: LC50,13 µM
same,GI50,SK-MEL-5,7.9 µM
same,CC50,SK-MEL-5; read-out: LC50,46.6 µM
same,GI50,UACC-257,5.86 µM
same,CC50,UACC-257; read-out: LC50,43 µM
same,GI50,UACC-62,2.14 µM
same,CC50,UACC-62; read-out: LC50,22.8 µM
same,GI50,OVCAR-3,2.02 µM
same,CC50,OVCAR-3; read-out: LC50,8.84 µM
same,GI50,OVCAR-4,2.21 µM
same,CC50,OVCAR-4; read-out: LC50,24.8 µM
same,GI50,OVCAR-5,2.83 µM
same,CC50,OVCAR-5; read-out: LC50,33.7 µM
same,GI50,OVCAR-8,2.3 µM
same,CC50,OVCAR-8; read-out: LC50,36.5 µM
same,GI50,SK-OV-3,14.3 µM
same,CC50,SK-OV-3; read-out: LC50,52.7 µM
same,GI50,786-0,1.89 µM
same,CC50,786-0; read-out: LC50,7.18 µM
same,GI50,A498,14.2 µM
same,CC50,A498; read-out: LC50,52.6 µM
same,GI50,CAKI-1,10.6 µM
same,CC50,CAKI-1; read-out: LC50,51 µM
same,GI50,RXF 393,1.22 µM
same,CC50,RXF 393; read-out: LC50,8.63 µM
same,GI50,SN12C,2.72 µM
same,CC50,SN12C; read-out: LC50,38.1 µM
same,GI50,TK-10,13.1 µM
same,CC50,TK-10; read-out: LC50,50.8 µM
same,GI50,UO-31,1.57 µM
same,CC50,UO-31; read-out: LC50,6.32 µM
same,GI50,MCF7,1.64 µM
same,CC50,MCF7; read-out: LC50,9.66 µM
same,GI50,HS 578T,2.29 µM
same,CC50,HS 578T; read-out: LC50,> 100 µM
same,GI50,MDA-MB-468,1.69 µM
same,CC50,MDA-MB-468; read-out: LC50,6.66 µM
